# Laboratory results taken from US10709705B2, “Aminopyrimidines as ALK inhibitors” (THE REGENTS OF THE UNIVERSITY OF MICHIGAN, priority 2016, dated 2020).
# Read-outs that look alike come from different tables or passages of the source.
# What was measured:
# [1] = tested on: H3122 cells (EML4-ALK); test: Cell growth inhibition assay (WST-8), H3122; format: cell-based; conditions: Homo sapiens, NCI-H3122, read-out: H3122 (nM) (EML4-ALK), 50% of cell growth inhibition (IC50), WST-8, versus DMSO control
# Method: H3122 and Kappas-299 cells were purchased from American Type Culture Collection (Manassas, Va., USA) and were used within 2 months after initiating from original stocks. All cell lines were cultured as recommended. For cell growth inhibition assay, cells were treated with different concentrations of the tested compounds, diluted from stock to culture media containing a 0.2% DMSO as the final concentration. Cell viability was determined using the WST-8 cell proliferation assay kit (Dojindo Molecular Technologies) according to manufacturer's instructions. Three independent experiments in triplicates were performed.
# [2] = molecular target: T1, ALK G1269A (Homo sapiens, UniProt Q9UM73, G1269A); test: Mutant ALK kinase inhibition, Lance TR-FRET, G1269A; format: biochemical; conditions: Table 5; ATP 100 μM
# T1 construct: made in house; host or cells: SF9 insect cells
# Method: The cytoplasmic domain (amino acid 1058-1620) of wild-type human ALK protein expressed as N-terminal GST-fusion protein was purchased from Carna Biosciences, Inc (Japan). Mutated ALK proteins were expressed in SF9 insect cells with N-terminal tags cleaved after purification. Kinase activities of all enzymes were assessed using a Lance® TR-FRET assay kit from Perkin Elmer Life Sciences (Waltham, Mass.). 2.5 μL of compound solution and 5 μL of protein solution were added into a black low volume 384 well microtiter plate which was incubated for 30 minutes with gentle shaking at room temperature, followed by adding 2.5 μL of fluorescently labeled peptide substrate (ULight™-IRS-1 (Tyr983) Peptide) and ATP mixture solution. The kinase reaction was performed in 50 mM HEPES (pH 7.5) with 1 mM EGTA, 1 mM MgCl2, and 2 mM DTT, 0.01% Tween-20 added right before the assay. Final concentrations of ATP, substrates, and DMSO were 100 μM, 20 nM, and 0.5%, respectively. […] The final mixture was incubated in the dark for 1 hour before the plate was read on a Tecan Infinite M-1000 multi-mode plate reader (Tecan, Durham N.C.) with an excitation wavelength of 320 nm. Emission intensities were measured at both 620 and 665 nm with the intensity ratio between 665 and 620 nm corresponding to the peptide substrate phosphorylation. […]
# [3] = molecular target: ALK F1174L (Homo sapiens, UniProt Q9UM73, F1174L); test: Cell based assay, ALK F1174L; parameters: key: + = active; −− = inactive; conditions: Table 5
# [4] = molecular target: T2, LTK (Homo sapiens, UniProt P29376); test: KINOMEscan kinase panel, LTK; format: binding
# T2 construct: purchased LeadHunter Discovery Services (currently DiscoverX Corporation), KINOMEscan screening service
# Excerpt: (§1) Cpd. No. 5 was screened for its activity against a panel of human kinases using the KINOMEscan™ screening platform from LeadHunter Discovery Services (currently DiscoverX Corporation (Fremont, Calif. 94538, United States). See Table 7.
# [5] = molecular target: T3, LRRK2 (Homo sapiens, UniProt Q5S007); test: KINOMEscan kinase panel, LRRK2; format: binding
# T3 construct: purchased LeadHunter Discovery Services (currently DiscoverX Corporation), KINOMEscan screening service
# Excerpt: as §1
# [6] = molecular target: T4, LRRK2(G2019S) (Homo sapiens, UniProt Q5S007, G2019S); test: KINOMEscan kinase panel, LRRK2(G2019S); format: binding
# T4 construct: purchased LeadHunter Discovery Services (currently DiscoverX Corporation), KINOMEscan screening service
# Excerpt: as §1
# [7] = molecular target: T5, INSR (Homo sapiens, UniProt P06213); test: KINOMEscan kinase panel, INSR; format: binding
# T5 construct: purchased LeadHunter Discovery Services (currently DiscoverX Corporation), KINOMEscan screening service
# Excerpt: as §1
# [8] = Pharmacokinetics in beagle dogs; format: in vivo; conditions: Table 9 (beagle dogs)
# Method: Routine pharmacokinetics studies were performed for Cpd. No. 5 in SD rats and beagle dogs.
# [9] = tested on: Human lymphoma cells, KARPAS 299 xenograft; test: KARPAS 299 xenograft tumor growth in SCID mice; format: in vivo; conditions: given orally, once daily for 3 weeks, FIG. 1
# Method: Cpd. Nos. 5 and 6 were dissolved in a solution of 98% PEG200: 2% TPGS (Sigma).
# Human lymphoma cells, KARPAS 299 were maintained at 37° C., 95% air, 5% carbon dioxide in RPMI 1640 medium supplemented with 10% Fetal Bovine Serum, 100 units/ml of penicillin and 100 units/ml of streptomycin (GIBCO™, Invitrogen Corp.) and passaged twice weekly.
# Tumor cells for xenografts were washed twice in PBS, and re-suspended in an ice cold mixture of 1:1 PBS and Matrigel (BD Biosciences, Invitrogen Corp.) for a final Matrigel protein concentration of 5 mg/ml. Cells at 5×10^6 cells in 0.1 ml were injected subcutaneously (s.c.) into the flank region of each mouse. All tumors were inoculated into SCID mice (strain:236 C.B-17 SCID, Charles River).
# The size of tumors growing in the mice was measured in two dimensions using calipers. Tumor volume (mm^3)=(AxB^2)/2 where A and B are the tumor length and width (in mm), respectively. During treatment, tumor volume and body weight were measured three times a week. After the treatment was stopped, tumor volume and body weight was measured at least once a week.
# Tumors were not allowed to exceed 10% of the animal's total body weight. If an animal had two or more tumors the total weight of all tumors were not allowed to exceed 10% of the animal's total body weight. […]
structure (smiles),measurement,setting,value
"Cc1cc(Nc2ncc(Cl)c(Nc3ccccc3S(=O)(=O)C(C)C)n2)c(OC(C)C)cc1C1=CCN(C2CCOCC2)CC1 [Cpd. No. 5, 5-chloro-N2-(2-isopropoxy-5-methyl-4-(1-(tetrahydro-2H-pyran-4-yl)-1,2,3,6-tetrahydropyridin-4-yl)phenyl)-N4-(2-(isopropylsulfonyl)phenyl)pyrimidine-2,4-diamine]",IC50,[1],27 nM
same,IC50,[2],4.3 nM
same,F1174L (c),[3],−− (c)
same,Kd,[4],0.62 nM
same,Kd,[5],6.5 nM
same,Kd,[6],6.6 nM
same,Kd,[7],54 nM
same,F(AUC0-t),[8]; PO 5 mg/kg vs IV 1 mg/kg,33.3%
same,MRT inf,"[8]; dog, in vivo, IV 1 mg/kg",22.1 h
same,AUC(0-t),"[8]; dog, in vivo, IV 1 mg/kg, read-out: AUC0-t (ng · h/mL) IV",1820 ng·h/mL
same,AUC(0-inf),"[8]; dog, in vivo, IV 1 mg/kg, read-out: AUC0-∞ (ng · h/mL) IV",2140 ng·h/mL
same,clearance,"[8]; dog, in vivo, IV 1 mg/kg, read-out: CL (iv) (converted)",8.1 mL/min/kg
same,Cmax,"[8]; dog, in vivo, IV 1 mg/kg, read-out: Cmax(ng/mL) IV",314 ng/mL
same,Tmax,"[8]; dog, in vivo, IV 1 mg/kg, read-out: Tmax (h) IV",0.083 h
same,Vd,"[8]; dog, in vivo, IV 1 mg/kg, read-out: Vss (iv)",10.8 L/kg
same,half-life,"[8]; dog, in vivo, IV 1 mg/kg, read-out: t1/2 (h) IV (converted)",19.7 h
same,AUC(0-t),"[8]; dog, in vivo, PO 5 mg/kg, read-out: AUC0-t (ng · h/mL) PO",2930 ng·h/mL
same,AUC(0-inf),"[8]; dog, in vivo, PO 5 mg/kg, read-out: AUC0-∞ (ng · h/mL) PO",3710 ng·h/mL
same,Cmax,"[8]; dog, in vivo, PO 5 mg/kg, read-out: Cmax(ng/mL) PO",239 ng/mL
same,Tmax,"[8]; dog, in vivo, PO 5 mg/kg, read-out: Tmax (h) PO",1.67 h
same,half-life,"[8]; dog, in vivo, PO 5 mg/kg, read-out: t1/2 (h) PO (converted)",20 h
same,tumor growth in the KARPAS 299 xenograph model,[9],inhibit tumor growth
